Measurements: PMC11200585, “Prospects for Prostate Cancer Chemotherapy: Cytotoxic Evaluation and Mechanistic Insights of Quinolinequinones with ADME/PK Profile” (Biomedicines, 2024)

Tests used:
Format in all cases: cell-based, human
CCRF-CEM = experiment: NCI-60 five-dose assay (leukemia); conditions: 48 h, SRB
LOX IMVI [1] = experiment: NCI-60 five-dose assay (melanoma); conditions: 48 h, SRB
SR = experiment: NCI-60 five-dose assay (leukemia); conditions: 48 h, SRB
COLO 205 = experiment: NCI-60 five-dose assay (colon cancer); conditions: 48 h, SRB
NCI-H460 = experiment: NCI-60 five-dose assay (non-small cell lung cancer); conditions: 48 h, SRB
MDA-MB-231/ATCC = experiment: NCI-60 five-dose assay (breast cancer); conditions: 48 h, SRB
HCC-2998 = experiment: NCI-60 five-dose assay (colon cancer); conditions: 48 h, SRB
SN12C = experiment: NCI-60 five-dose assay (renal cancer); conditions: 48 h, SRB
RXF 393 = experiment: NCI-60 five-dose assay (renal cancer); conditions: 48 h, SRB
HS 578T = experiment: NCI-60 five-dose assay (breast cancer); conditions: 48 h, SRB
T-47D = experiment: NCI-60 one-dose screen (breast cancer); conditions: 10 µM single dose, 48 h
Description: (§1) The obtained quinolinequinones were submitted to NCI, Bethesda, USA, and, as per standard protocol of NCI, all compounds were evaluated for their antiproliferative activity at single-dose assay (10 µM concentration in DMSO) on a panel of 60 cancer cell lines derived from leukemia, non-small-cell lung, colon, CNS, melanoma, ovarian, renal, prostate, and breast, as per protocol. Tested compounds were added to the microtiter culture plates followed by incubation for 48 h at 37 °C. Sulforhodamine B (SRB), a protein-binding dye, is used for endpoint determination. The percent of the growth of the treated cells was determined in comparison to the untreated control cells and the results of each tested compound were reported. Data from one-dose experiments pertain to the percentage growth at 10 μM [16, 17, 18].

MDA-MB-468 = experiment: NCI-60 one-dose screen (breast cancer); conditions: 10 µM single dose, 48 h
Description: as §1

BT-549 = experiment: NCI-60 one-dose screen (breast cancer); conditions: 10 µM single dose, 48 h
Description: as §1

MCF7 = experiment: NCI-60 five-dose assay (breast cancer); conditions: 48 h, SRB
IGROV1 = experiment: NCI-60 five-dose assay (ovarian cancer); conditions: SRB
SW-620 = experiment: NCI-60 five-dose assay (colon cancer); conditions: 48 h, SRB
NCI/ADR-RES = experiment: NCI-60 five-dose assay (ovarian cancer); conditions: 48 h, SRB
A498 = experiment: NCI-60 five-dose assay (renal cancer); conditions: 48 h, SRB
OVCAR-4 = experiment: NCI-60 five-dose assay (ovarian cancer); conditions: 48 h, SRB
KM12 = experiment: NCI-60 five-dose assay (colon cancer); conditions: 48 h, SRB
SNB-75 = experiment: NCI-60 five-dose assay (CNS cancer); conditions: 48 h, SRB
SK-MEL-28 [2] = experiment: NCI-60 five-dose assay (melanoma); conditions: 48 h, SRB
A549/ATCC = experiment: NCI-60 five-dose assay (non-small cell lung cancer); conditions: 48 h, SRB
HOP-62 = experiment: as above; conditions: 48 h, SRB
MDA-MB-435 = experiment: NCI-60 one-dose screen (melanoma); conditions: 10 µM single dose, 48 h
Description: as §1

SK-MEL-28 [3] = experiment: NCI-60 one-dose screen (melanoma); conditions: 10 µM single dose
Description: as §1

SK-MEL-2 = experiment: NCI-60 one-dose screen (melanoma); conditions: 10 µM single dose, 48 h
Description: as §1

LOX IMVI [4] = experiment: NCI-60 one-dose screen (melanoma); conditions: 10 µM single dose, 48 h
Description: as §1

UACC-257 = experiment: NCI-60 one-dose screen (melanoma); conditions: 10 µM single dose, 48 h
Description: as §1

MALME-3M = experiment: NCI-60 one-dose screen (melanoma); conditions: 10 µM single dose, 48 h
Description: as §1

UACC-62 = experiment: NCI-60 one-dose screen (melanoma); conditions: 10 µM single dose, 48 h
Description: as §1

SK-MEL-5 = experiment: NCI-60 one-dose screen (melanoma); conditions: 10 µM single dose, 48 h
Description: as §1

OVCAR-8 = experiment: NCI-60 five-dose assay (ovarian cancer); conditions: 48 h, SRB
SK-OV-3 = experiment: NCI-60 five-dose assay (ovarian cancer); conditions: 48 h, SRB
TK-10 = experiment: NCI-60 five-dose assay (renal cancer); conditions: 48 h, SRB
[5] = Homo sapiens, read-out: LC50 (the source's name)

COc1ccccc1NC1=C(Cl)C(=O)c2nc(C)ccc2C1=O [AQQ1]
TGI (CCRF-CEM): 8.21 µM | GI50 (CCRF-CEM; Homo sapiens): 1.94 µM | LC50 (concentration killing 50% of cells) (CCRF-CEM; Homo sapiens): > 100 µM | TGI (LOX IMVI [1]): 2.36 µM | GI50 (LOX IMVI [1]; Homo sapiens): 0.952 µM | LC50 (concentration killing 50% of cells) (LOX IMVI [1]; Homo sapiens): 5.7 µM | TGI (SR): 4.25 µM | GI50 (SR; Homo sapiens): 0.794 µM | CC50 (SR; [5]): > 100 µM | TGI (COLO 205): 3.87 µM | GI50 (COLO 205; Homo sapiens): 1.78 µM | TGI (NCI-H460): 12 µM | GI50 (NCI-H460; Homo sapiens): 3.22 µM | CC50 (NCI-H460; [5]): 52.7 µM | TGI (MDA-MB-231/ATCC): 2.53 µM | GI50 (MDA-MB-231/ATCC; Homo sapiens): 1.19 µM | LC50 (concentration killing 50% of cells) (MDA-MB-231/ATCC; Homo sapiens): 5.37 µM | TGI (HCC-2998): 3.46 µM | GI50 (HCC-2998; Homo sapiens): 1.87 µM | LC50 (concentration killing 50% of cells) (HCC-2998; Homo sapiens): 6.42 µM | TGI (SN12C): 3.29 µM | GI50 (SN12C; Homo sapiens): 1.7 µM | LC50 (concentration killing 50% of starting cells) (SN12C; Homo sapiens): 6.36 µM | TGI (RXF 393): 2.76 µM | GI50 (RXF 393; Homo sapiens): 1.42 µM | LC50 (RXF 393; Homo sapiens): 5.36 µM | TGI (HS 578T): 5.64 µM | GI50 (HS 578T; Homo sapiens): 2.27 µM | CC50 (HS 578T; [5]): > 100 µM | GP (growth percentage) (T-47D): −44.73% | GP (growth percentage) (MDA-MB-468): −79.74% | GP (growth percentage) (BT-549): 83.54% | TGI (MCF7): 4.49 µM | GI50 (MCF7; Homo sapiens): 1.78 µM | LC50 (MCF7; Homo sapiens): > 100 µM | TGI (IGROV1; 48 h): 2.92 µM | GI50 (IGROV1; Homo sapiens, IGROV-1, 48 h): 1.46 µM | LC50 (IGROV1; Homo sapiens, IGROV-1, 48 h): 5.86 µM | TGI (SW-620): 3.73 µM | GI50 (SW-620; Homo sapiens): 1.84 µM | LC50 (SW-620; Homo sapiens): 7.56 µM | TGI (NCI/ADR-RES): 5.16 µM | GI50 (NCI/ADR-RES; Homo sapiens): 2.03 µM | CC50 (NCI/ADR-RES; [5]): 34.6 µM | TGI (A498): 4.60 µM | GI50 (A498; Homo sapiens): 1.9 µM | LC50 (A498; Homo sapiens): 13.1 µM | TGI (OVCAR-4): 2.49 µM | GI50 (OVCAR-4; Homo sapiens): 1.21 µM | LC50 (concentration killing 50% of cells) (OVCAR-4; Homo sapiens): 5.11 µM | TGI (KM12): 3.08 µM | GI50 (KM12; Homo sapiens): 1.49 µM | CC50 (KM12; [5]): 6.4 µM | TGI (SNB-75): 2.84 µM | GI50 (SNB-75; Homo sapiens): 1.5 µM | LC50 (50% lethal concentration) (SNB-75; Homo sapiens): 5.39 µM | TGI (SK-MEL-28 [2]): 3.34 µM | GI50 (SK-MEL-28 [2]; Homo sapiens): 1.85 µM | LC50 (SK-MEL-28 [2]; Homo sapiens): 6.02 µM | TGI (A549/ATCC): 6.24 µM | GI50 (A549/ATCC; Homo sapiens): 2.44 µM | CC50 (A549/ATCC; [5]): 45.2 µM | TGI (HOP-62): 6.98 µM | GI50 (HOP-62; Homo sapiens): 2.41 µM | LC50 (concentration killing 50% of cells) (HOP-62; Homo sapiens): 37.5 µM | GP (growth percentage) (MDA-MB-435): −85.96% | GP (growth percentage) (SK-MEL-28 [3]; 48 h): 14.13% | inhibition at 10 µM (SK-MEL-28 [3]; Homo sapiens): 85.9% | GP (growth percentage) (SK-MEL-2): 78.82% | GP (growth percentage) (LOX IMVI [4]): −72.99% | GP (growth percentage) (UACC-257): −82.67% | GP (growth percentage) (MALME-3M): −55.92% | GP (growth percentage) (UACC-62): −45.84% | GP (growth percentage) (SK-MEL-5): −93.34% | TGI (OVCAR-8): 3.25 µM | GI50 (OVCAR-8; Homo sapiens): 1.61 µM | CC50 (OVCAR-8; [5]): 6.59 µM | TGI (SK-OV-3): 27.5 µM | GI50 (SK-OV-3; Homo sapiens): 12.6 µM | LC50 (50% net cell kill) (SK-OV-3; Homo sapiens): 59.8 µM | TGI (TK-10): 3.86 µM | GI50 (TK-10; Homo sapiens): 2.34 µM | LC50 (concentration killing 50% of starting cells) (TK-10; Homo sapiens): 6.36 µM
